Measurements: US20260061008A1, “METHODS OF INCREASING MESENCHYMAL STROMAL CELL BIOSYNTHESIS OF SPECIALIZED PRO-RESOLVING MEDIATORS AND METHODS OF USE” (University of Oregon, priority 2022, published 2026)

Tests used:
[1] = test system: MSCs encapsulated in PEG-4MAL hydrogels; test: RvD1 ELISA of media from MSCs encapsulated in PEG-4MAL hydrogels and treated with DHA; type: cell-based; settings: 160 μM DHA, TCP and PEG-4MAL encapsulated MSCs
Procedure: MSCs were cultured in Tissue Culture Plastic (TCP) or encapsulated in PEG-4MAL hydrogels. The 20 kDa four-arm PEG-4MAL was sourced from Laysan Bio (Item #: 4arm-PEG-20K-5g). A solution of 4% w/v PEG in a 0.5 M (pH=7) MES buffer was prepared. The two peptides, RGD (GCGYGRGDSPG; SEQ ID NO: 1) for functionalization of the gel and VPM (GCRDVPMSMRGGDRCG; SEQ ID NO: 2) for crosslinking were also dissolved in the 0.5 M MES buffer. The hydrogels were prepared using a 2:1:1:1 volume ratio of PEG: RGD: cells/PBS: VPM. The 4% PEG translates to 2 mM in the hydrogel prepared from a 5 mM PEG stock solution. Based on the concentration of maleimides per PEG molecule (8 mM maleimide in 2 mM PEG-4MAL) the RGD concentration was 0.768 mM final concentration in the gel (from a 3.84 mM stock and accounting for ˜96% purity) and the VPM concentration required to cross-link the remaining maleimides in the PEG was 3.456 mM final in the gel (17.28 mM stock). […]
MSCs were treated with 160 μM DHA in the hydrogels in three different conditions. […] Samples of cell culture media were taken incrementally over a period of five days and Resolvin D1 levels were measured via ELISA assay. In addition, samples of the cell culture medium were taken 24 hours after treatment for each group and these samples were analyzed by LCMS (Wayne State University Lipidomics core facility).

OA progression = settings: mice, repeated intra-articular injections into knee joints; cited from earlier work

Structure (SMILES)	Duration of continued RvD1 production [1]	OA progression (OA progression)
CC/C=C\C/C=C\C/C=C\C/C=C\C/C=C\C/C=C\CCC(=O)O [DHA, docosahexaenoic acid]	at least 120 hours	
CC/C=C\C[C@H](O)/C=C/C=C\C=C\C=C\[C@@H](O)[C@@H](O)C/C=C\CCC(=O)O [Resolvin D1]		attenuate OA progression
